Results as given in the supplement of paper PMC13207355.
± gives the standard deviation of the averaged measurements.

Experiments:
Conditions in all cases: exposure time: 72 h
E57 [1] = patient-derived glioblastoma stem cells of mesenchymal subtype; experiment: phenotypic distance (Euclidean, principal components) from DMSO controls (arbitrary units); higher = stronger morphological change
E28 [2] = patient-derived glioblastoma stem cells of classical subtype; experiment: as above
E21 [3] = patient-derived glioblastoma stem cells of mesenchymal subtype; experiment: as above
FT3469 [4] = normal neural stem cell line; experiment: as above
E34 [5] = patient-derived glioblastoma stem cells of proneural subtype; experiment: as above
E13 [6] = patient-derived glioblastoma stem cells of classical subtype; experiment: as above
E57 [7] = experiment: surviving fraction (nuclei count normalised to DMSO); higher = more cells surviving (less toxic)
E28 [8] = experiment: as above
E21 [9] = experiment: as above
FT3469 [10] = experiment: as above
E34 [11] = experiment: as above
E13 [12] = experiment: as above
E31 = patient-derived glioblastoma stem cells of proneural subtype; experiment: phenotypic distance (Euclidean, principal components) from DMSO controls (arbitrary units); higher = stronger morphological change
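Wherever phenotypic distance (Euclidean, principal components) from DMSO controls is given: cell Painting imaging in 384-well plates, CellProfiler features reduced to at least 20 principal components, Euclidean distance versus same-plate DMSO vehicle wells (0.1% v/v), median over six images per well.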
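Wherever surviving fraction (nuclei count normalised to DMSO) is given: nuclei counted by high-content imaging of Hoechst-stained cells in laminin-coated 384-well plates, relative to 0.1% DMSO vehicle wells, with staurosporine as cell-death control.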

CN1CCC(NC(=O)c2cc(-c3c(O)cc(O)cc3Oc3ccc([N+](=O)[O-])cc3)on2)CC1 [NMS-E973]
Conditions	phenotypic distance	surviving fraction
E13 [6], 4.1 nM	0.577 ± 0.024	–
E13 [6], 12.3 nM	0.562 ± 0.12	–
E13 [6], 37 nM	0.639 ± 0.056	–
E13 [6], 111.1 nM	1.31 ± 0.59	–
E13 [6], 333.3 nM	4.489 ± 0.013	–
E13 [6], 1000 nM	5.34 ± 1	–
E13 [6], 3000 nM	5.62 ± 0.2	–
E13 [12], 4.1 nM	–	0.964 ± 0.14
E13 [12], 12.3 nM	–	0.953 ± 0.091
E13 [12], 37 nM	–	0.944 ± 0.13
E13 [12], 111.1 nM	–	0.93 ± 0.01
E13 [12], 333.3 nM	–	0.219 ± 0.06
E13 [12], 1000 nM	–	0.192 ± 0.013
E13 [12], 3000 nM	–	0.21 ± 0.015
E21 [3], 4.1 nM	0.751 ± 0.092	–
E21 [3], 12.3 nM	0.626 ± 0.14	–
E21 [3], 37 nM	0.843 ± 0.42	–
E21 [3], 111.1 nM	1.82 ± 0.4	–
E21 [3], 333.3 nM	4.147 ± 0.0071	–
E21 [3], 1000 nM	5.3 ± 0.87	–
E21 [3], 3000 nM	5.82 ± 1.7	–
E21 [9], 4.1 nM	–	0.891 ± 0.061
E21 [9], 12.3 nM	–	0.959 ± 0.0061
E21 [9], 37 nM	–	0.926 ± 0.024
E21 [9], 111.1 nM	–	0.817 ± 0.085
E21 [9], 333.3 nM	–	0.416 ± 0.039
E21 [9], 1000 nM	–	0.257 ± 0.072
E21 [9], 3000 nM	–	0.116 ± 0.035
E28 [2], 4.1 nM	0.607 ± 0.16	–
E28 [2], 12.3 nM	0.671 ± 0.17	–
E28 [2], 37 nM	0.573 ± 0.056	–
E28 [2], 111.1 nM	1.19 ± 0.29	–
E28 [2], 333.3 nM	2.09 ± 0.28	–
E28 [2], 1000 nM	5.08 ± 0.38	–
E28 [2], 3000 nM	6.81 ± 1.5	–
E28 [8], 4.1 nM	–	1.01 ± 0.049
E28 [8], 12.3 nM	–	0.913 ± 0.054
E28 [8], 37 nM	–	0.909 ± 0.017
E28 [8], 111.1 nM	–	0.657 ± 0.054
E28 [8], 333.3 nM	–	0.31 ± 0.068
E28 [8], 1000 nM	–	0.0561 ± 0.006
E28 [8], 3000 nM	–	0.0288 ± 0.023
E34 [5], 4.1 nM	0.575 ± 0.35	–
E34 [5], 12.3 nM	0.675 ± 0.013	–
E34 [5], 37 nM	0.615 ± 0.26	–
E34 [5], 111.1 nM	1.12 ± 0.27	–
E34 [5], 333.3 nM	1.98 ± 0.084	–
E34 [5], 1000 nM	3.12 ± 0.68	–
E34 [5], 3000 nM	5.65 ± 0.52	–
E34 [11], 4.1 nM	–	0.907 ± 0.1
E34 [11], 12.3 nM	–	0.921 ± 0.02
E34 [11], 37 nM	–	0.855 ± 0.041
E34 [11], 111.1 nM	–	0.804 ± 0.063
E34 [11], 333.3 nM	–	0.45 ± 0.024
E34 [11], 1000 nM	–	0.289 ± 0.025
E34 [11], 3000 nM	–	0.0598 ± 0.021
E57 [1], 4.1 nM	0.456 ± 0.053	–
E57 [1], 12.3 nM	0.414 ± 0.15	–
E57 [1], 37 nM	0.335 ± 0.044	–
E57 [1], 111.1 nM	1.07 ± 0.68	–
E57 [1], 333.3 nM	2.57 ± 0.079	–
E57 [1], 1000 nM	3.42 ± 0.32	–
E57 [1], 3000 nM	4.94 ± 0.064	–
E57 [7], 4.1 nM	–	0.941 ± 0.059
E57 [7], 12.3 nM	–	1.01 ± 0.059
E57 [7], 37 nM	–	0.9484 ± 0.0063
E57 [7], 111.1 nM	–	1.01 ± 0.046
E57 [7], 333.3 nM	–	0.373 ± 0.054
E57 [7], 1000 nM	–	0.0919 ± 0.032
E57 [7], 3000 nM	–	0.0144 ± 0.00078
FT3469 [4], 4.1 nM	2.07 ± 2	–
FT3469 [4], 12.3 nM	1.21 ± 0.86	–
FT3469 [4], 37 nM	1.04 ± 0.15	–
FT3469 [4], 111.1 nM	1.74 ± 0.2	–
FT3469 [4], 333.3 nM	1.89 ± 0.16	–
FT3469 [4], 1000 nM	2.79 ± 0.12	–
FT3469 [4], 3000 nM	3.7 ± 0.28	–
FT3469 [10], 4.1 nM	–	0.918 ± 0.12
FT3469 [10], 12.3 nM	–	0.951 ± 0.017
FT3469 [10], 37 nM	–	0.975 ± 0.046
FT3469 [10], 111.1 nM	–	0.798 ± 0.077
FT3469 [10], 333.3 nM	–	0.677 ± 0.067
FT3469 [10], 1000 nM	–	0.4901 ± 0.0038
FT3469 [10], 3000 nM	–	0.4 ± 0.025

Cc1ccc(C(=O)Nc2ccc(CN3CCN(C)CC3)c(C(F)(F)F)c2)cc1C#Cc1cnc2cccnn12 [Ponatinib]
phenotypic distance
Conditions	E13 [6]	E21 [3]	E28 [2]	E31	E34 [5]	E57 [1]	FT3469 [4]
4.1 nM	1.34	2.02	0.791	0.882	1.37	3.43	1.73
12.3 nM	1.37	5.3	1.19	1.09	1.08	4.1	2.15
37 nM	1.75	1.87	1.3	2.13	1.46	3.63	1.36
111.1 nM	2.38	2.05	1.57	2.63	1.59	3.38	1.58
333.3 nM	2.71	4.01	1.29	2.59	2.93	2.19	2.72
1000 nM	3.02	9.73	2.75	11.1	3.77	4.53	4.78
3000 nM	5.54	9.25	3.32	8.04	5.85	5.68	8.72
